According to US11345673B2, “1-phenylpropanone compounds and use thereof” (UNIVERSITA' DEGLI STUDI DI PADOVA, priority 2016, dated 2022):

Assays:
Assay type in all cases: cell-based
[1] = tested on: breast cancer (MDA-MB-231) cells; test: Proapoptotic effect by flow cytofluorometry, MDA-MB-231 cells; settings: Homo sapiens, 24 hours incubation, three experiments in triplicate, read-out: IC50 ± S.D. (concentration required to cause 50% apoptosis), MDA-MB-231
Text: (§1) Flow cytofluorometry was used to evaluate the ability of some compounds of the invention to induce cell death, with particular reference to apoptosis. This latter phenomenon is characterized by morphological modification of the plasmatic membrane as a result of the translocation of the phospholipid phosphatidylserine (PS) in the plasmatic membrane from the cytoplasmic side to the outer surface of the cell. […] Annexin is detected because it is conjugated to a specific fluorochrome, thus allowing to distinguish apoptosis from necrotic phenomena, which are instead measured by the fluorescent dye propidium iodide, which penetrates freely in the cell having a damaged plasmatic membrane.
(§2) Both primary lymphocytic tumor cells taken from patients with chronic lymphatic leukemia (LLC) and humanized cell lines of neuroblastoma (SK-N-BE), hepatocarcinoma (HepG2 and HUH7.5) and breast cancer (MDA-MB-231) were used.
(§3) HepG2 (2×10^5 cells per well), HUH7.5 and MDA-MB-231 (1.5×10^5 cells per well) cells were seeded on a 6-well plate in Dulbecco's Modified Eagle Medium (DMEM), 10% FBS and cultured at 37° C. in a 5% CO2 atmosphere. After 24 hours, the medium was removed and replaced by DMEM containing the test compounds, previously dissolved in 100% dimethylsulfoxide, and diluted such that the final concentration of the same in cell incubation solutions was 0.5% (v/v). After 30 minutes incubation, 10% FBS was added, and the cells were incubated for 24 hours, then detached with trypsin, and analyzed by cytofluorimeter. LLC cells (1×10^6 cells per well) were seeded and cultured on 12-well plates in RPMI-1640 medium, 10% FBS, at 37° C. in a humified atmosphere containing 5% CO2. To this medium, test compounds were added, and incubation was carried out for 24 hours, after which time the cells were analyzed by cytofluorimeter.
(§4) The results obtained by cytofluorometry from three separate experiments executed in triplicate were tabulated, estimating the concentration required to cause 50% apoptosis (IC50), and standard deviation.

[2] = tested on: neuroblastoma (SK-N-BE) cells; test: Proapoptotic effect by flow cytofluorometry, SK-N-BE cells; settings: Homo sapiens, three experiments in triplicate, read-out: IC50 ± S.D. (concentration required to cause 50% apoptosis), SK-N-BE
Text: as §1
Both primary lymphocytic tumor cells taken from patients with chronic lymphatic leukemia (LLC) and humanized cell lines of neuroblastoma (SK-N-BE), hepatocarcinoma (HepG2 and HUH7.5) and breast cancer (MDA-MB-231) were used. […]
as §4

[3] = tested on: primary lymphocytic tumor cells taken from patients with chronic lymphatic leukemia (LLC); test: Proapoptotic effect by annexin V/propidium iodide flow cytofluorometry, LLC cells; settings: Homo sapiens, 24 hours incubation, three experiments in triplicate, read-out: IC50 ± S.D. (concentration required to cause 50% apoptosis), LLC
Text: as §1, §2, §3
Leukemic lymphocytes were isolated, following heparinized venous withdrawal from peripheral blood of LLC patients, diluted with saline in a 1:3 ratio, layered on a Ficoll/Hypaque (F/H) density gradient, centrifuged at 900 rpm for 20 minutes, at 20° C. without brakes. Mononuclear cells and platelets, concentrating on top of the F/H gradient, were separated after 2 further washings, with centrifugation at 400 rpm at room temperature. The mononuclear cells thus obtained were washed 3 times with PBS, centrifuged for 10 minutes at 400 rpm, at 20° C. with brakes, and resuspended in RPMI 1640.
In most LLC cases, the percentage of leukemic B cells was higher than 85% with respect to all mononuclear cells from peripheral blood.
as §4

[4] = tested on: hepatocarcinoma (HUH7.5) cells; test: Proapoptotic effect by flow cytofluorometry, HUH7.5 cells; settings: Homo sapiens, 24 hours incubation, three experiments in triplicate, read-out: IC50 ± S.D. (concentration required to cause 50% apoptosis), HUH7.5
Text: as §1, §2, §3, §4

[5] = tested on: hepatocarcinoma (HepG2) cells; test: Proapoptotic effect by flow cytofluorometry, HepG2 cells; settings: Homo sapiens, 24 hours incubation, three experiments in triplicate, read-out: IC50 ± S.D. (concentration required to cause 50% apoptosis), HepG2
Text: as §1, §2, §3, §4

IC50 [1] [nM] | IC50 [2] [nM] | IC50 [3] [nM] | IC50 [4] [nM] | IC50 [5] [nM] | Structure (SMILES)
470 ± 100 | 450 ± 70 | 440 ± 60 | 520 ± 100 | 500 ± 90 | CCCCCCCSc1ccc(C(=O)CCN2CCN(C)CC2)cc1 [Compound 14, 1-(4-(heptylthio)phenyl)-3-(4-methylpiperazin-1-yl)propan-1-one]
560 ± 60 | 540 ± 90 | 500 ± 40 | 490 ± 70 | 590 ± 10 | CCCCCCCSc1ccc(C(=O)CCN2CCCCC2)cc1 [Compound 11, 1-(4-(heptylthio)phenyl)-3-(piperidin-1-yl)propan-1-one]
650 ± 10 | 670 ± 90 | 650 ± 10 | 600 ± 120 | 590 ± 60 | CCCCCCSc1ccc(C(=O)CCN2CCN(C)CC2)cc1 [Compound 13, 1-(4-(hexylthio)phenyl)-3-(4-methylpiperazin-1-yl)propan-1-one]
900 ± 50 | 750 ± 130 | 850 ± 60 | 950 ± 60 | 800 ± 70 | CCCCCCCc1ccc(C(=O)CCN2CCN(C)CC2)cc1 [Compound 26, 1-(4-heptylphenyl)-3-(4-methylpiperazin-1-yl)propan-1-one]
11850 ± 70 | 13170 ± 120 | 12200 ± 110 | 14540 ± 120 | 12950 ± 50 | CCCCCSc1ccc(C(=O)CCN2CCN(C)CC2)cc1 [Compound 12, 3-(4-methylpiperazin-1-yl)-1-(4-(pentylthio)phenyl)propan-1-one]
550 ± 80 | 500 ± 170 | 500 ± 150 | 500 ± 65 | 500 ± 80 | CCCCCCCc1ccc(C(=O)CCN2CCOCC2)cc1 [Compound 24, 1-(4-heptylphenyl)-3-morpholinopropan-1-one]
1800 ± 90 | 1670 ± 50 | 1870 ± 70 | 1800 ± 110 | 1700 ± 50 | CCCCCCSc1ccc(C(=O)CCN2CCCCC2)cc1 [Compound 10, 1-(4-(hexylthio)phenyl)-3-(piperidin-1-yl)propan-1-one]
1650 ± 750 | 1600 ± 100 | 1500 ± 80 | 1500 ± 100 | 1550 ± 90 | CCCCCCCc1ccc(C(=O)CCN2CCCCC2)cc1 [Compound 25, 1-(4-heptylphenyl)-3-(piperidin-1-yl)propan-1-one]

Further lines, the molecule ahead of its results:

Structure (SMILES) | IC50 [1] [nM] | IC50 [2] [nM] | IC50 [3] [nM] | IC50 [4] [nM] | IC50 [5] [nM]
CCCCCCC[Se]c1ccc(C(=O)CCN2CCCCC2)cc1 [Compound 20, 1-(4-(heptylselenyl)phenyl)-3-(piperidin-1-yl)propan-1-one] | 1750 ± 100 | 1680 ± 130 | 1700 ± 50 | 1730 ± 90 | 1740 ± 50
CCCCC[Se]c1ccc(C(=O)CCN2CCN(C)CC2)cc1 [Compound 21, 3-(4-methylpiperazin-1-yl)-1-(4-(pentylselenyl)phenyl)propan-1-one] | 14230 ± 140 | 13880 ± 130 | 14160 ± 90 | 13600 ± 90 | 15570 ± 30
CCCCCCCSc1ccc(C(=O)CCN2CCOCC2)cc1 [Compound 8, 1-(4-(heptylthio)phenyl)-3-morpholinopropan-1-one] | 660 ± 120 | 600 ± 50 | 550 ± 90 | 630 ± 80 | 570 ± 80
CCCCC[Se]c1ccc(C(=O)CCN2CCCCC2)cc1 [Compound 18, 1-(4-(pentylselenyl)phenyl)-3-(piperidin-1-yl)propan-1-one] | 7900 ± 100 | 8000 ± 100 | 8500 ± 150 | 8300 ± 80 | 7500 ± 150
CCCCCC[Se]c1ccc(C(=O)CCN2CCOCC2)cc1 [Compound 16, 1-(4-(hexylselenyl)phenyl)-3-morpholinopropan-1-one] | 2580 ± 90 | 2470 ± 60 | 2530 ± 90 | 2600 ± 100 | 2620 ± 80
CCCCCCC[Se]c1ccc(C(=O)CCN2CCOCC2)cc1 [Compound 17, 1-(4-(heptylselenyl)phenyl)-3-morpholinopropan-1-one] | 550 ± 70 | 500 ± 60 | 550 ± 40 | 500 ± 100 | 600 ± 70
CCCCCCOc1ccc(C(=O)CCN2CCCCC2)cc1 [Compound 3, 1-(4-(hexyloxy)phenyl)-3-(piperidin-1-yl)propan-1-one] | 2600 ± 100 | 3000 ± 170 | 2530 ± 150 | 2750 ± 90 | 3070 ± 90
CCCCCCCOc1ccc(C(=O)CCN2CCCCC2)cc1 [Compound 4, 1-(4-(heptyloxy)phenyl)-3-(piperidin-1-yl)propan-1-one] | 3010 ± 150 | 2930 ± 80 | 3030 ± 70 | 2780 ± 130 | 3000 ± 150
CCCCCC[Se]c1ccc(C(=O)CCN2CCCCC2)cc1 [Compound 19, 1-(4-(hexylselenyl)phenyl)-3-(piperidin-1-yl)propan-1-one] | 13010 ± 120 | 11650 ± 60 | 10100 ± 80 | 11980 ± 110 | 12480 ± 120
CCCCCCCOc1ccc(C(=O)CCN2CCOCC2)cc1 [Compound 2, 1-(4-(heptyloxy)phenyl)-3-morpholinopropan-1-one] | 1610 ± 70 | 1640 ± 90 | 1620 ± 150 | 1580 ± 100 | 1550 ± 130
CCCCC[Se]c1ccc(C(=O)CCN2CCOCC2)cc1 [Compound 15, 3-morpholino-1-(4-(pentylselenyl)phenyl)propan-1-one] | 13900 ± 140 | 15710 ± 130 | 14200 ± 170 | 12200 ± 80 | 11110 ± 70
CCCCCC[Se]c1ccc(C(=O)CCN2CCN(C)CC2)cc1 [Compound 22, 1-(4-(hexylselenyl)phenyl)-3-(4-methylpiperazin-1-yl)propan-1-one] | 8100 ± 70 | 8200 ± 70 | 8150 ± 70 | 8000 ± 60 | 8100 ± 100
CCCCCCOc1ccc(C(=O)CCN2CCOCC2)cc1 [Compound 1, 1-(4-(hexyloxy)phenyl)-3-morpholinopropan-1-one] | 1610 ± 80 | 1850 ± 90 | 1610 ± 100 | 1580 ± 70 | 1670 ± 150
CCCCCCCOc1ccc(C(=O)CCN2CCN(C)CC2)cc1 [Compound 5, 1-(4-(heptyloxy)phenyl)-3-(4-methylpiperazin-1-yl)propan-1-one] | 1480 ± 90 | 1550 ± 100 | 1450 ± 60 | 1610 ± 80 | 1600 ± 50
CCCCCSc1ccc(C(=O)CCN2CCCCC2)cc1 [Compound 9, 1-(4-(pentylthio)phenyl)-3-(piperidin-1-yl)propan-1-one] | 1800 ± 60 | 1850 ± 140 | 1750 ± 40 | 1730 ± 90 | 1660 ± 100
CCCCCCC[Se]c1ccc(C(=O)CCN2CCN(C)CC2)cc1 [Compound 23, 1-(4-(heptylselenyl)phenyl)-3-(4-methylpiperazin-1-yl)propan-1-one] | 1700 ± 90 | 1750 ± 90 | 1770 ± 50 | 1690 ± 80 | 1700 ± 50
CCCCCCSc1ccc(C(=O)CCN2CCOCC2)cc1 [Compound 7, 1-(4-(hexylthio)phenyl)-3-morpholinopropan-1-one] | 500 ± 200 | 530 ± 90 | 500 ± 200 | 560 ± 200 | 490 ± 110
CCCCCSc1ccc(C(=O)CCN2CCOCC2)cc1 [Compound 6, 3-morpholino-1-(4-(pentylthio)phenyl)propan-1-one] | 8000 ± 70 | 8200 ± 100 | 8500 ± 80 | 8250 ± 120 | 8000 ± 100
